# System: test plant species
# Experiment: Post-emergent herbicidal activity test (greenhouse, foliar spray, visual growth reduction)
# Assay type: in vivo
# Conditions: post-emergence, 336 h, ALOMY: blackgrass (Alopecurus myosuroides), 140 g ai/ha, 14 days after application, read-out: Visual Growth Reduction (%) 14 Days After Application, ALOMY
# Outline: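 Visual percent injury (0-100) rated 14 d after treatment, relative to nontreated and solvent-blank plants. Test plants at first or second true leaf stage received an overhead track-sprayer application at 187 L/ha. Compounds were formulated in aqueous acetone/DMSO carrier containing crop oil concentrate and X-77 surfactant.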
row,Structure (SMILES),pest or weed control at 140 g/ha [%]
1,"COC(=O)c1nc(-c2ccc(C)cc2Cl)ccc1Cl [F60, Methyl 3-chloro-6-(2-chloro-4-methylphenyl) picolinate]",0 to 29
2,"CO/N=C/c1ccc(-c2ccc(Cl)c(C(=O)OC)n2)c(Cl)c1 [F21, methyl 3-chloro-6-(2-chloro-4-((methoxyimino)methyl)phenyl)picolinate]",0 to 29

# Same assay, conditions: post-emergence, 336 h, AMARE: redroot pigweed (Amaranthus retroflexus), 140 g ai/ha, 14 days after application, read-out: Visual Growth Reduction (%) 14 Days After Application, AMARE
row,Structure (SMILES),pest or weed control at 140 g/ha [%]
1,"COC(=O)c1nc(-c2ccc(C)cc2Cl)ccc1Cl [F60, Methyl 3-chloro-6-(2-chloro-4-methylphenyl) picolinate]",60 to 74
2,"CO/N=C/c1ccc(-c2ccc(Cl)c(C(=O)OC)n2)c(Cl)c1 [F21, methyl 3-chloro-6-(2-chloro-4-((methoxyimino)methyl)phenyl)picolinate]",0 to 29

# Same assay, conditions: post-emergence, 336 h, AVEFA: wild oat (Avena fatua), 140 g ai/ha, 14 days after application, read-out: Visual Growth Reduction (%) 14 Days After Application, AVEFA
row,Structure (SMILES),pest or weed control at 140 g/ha [%]
1,"COC(=O)c1nc(-c2ccc(C)cc2Cl)ccc1Cl [F60, Methyl 3-chloro-6-(2-chloro-4-methylphenyl) picolinate]",0 to 29
2,"CO/N=C/c1ccc(-c2ccc(Cl)c(C(=O)OC)n2)c(Cl)c1 [F21, methyl 3-chloro-6-(2-chloro-4-((methoxyimino)methyl)phenyl)picolinate]",0 to 29

# Same assay, conditions: post-emergence, 336 h, CHEAL: lambsquarters (Chenopodium album), 140 g ai/ha, 14 days after application, read-out: Visual Growth Reduction (%) 14 Days After Application, CHEAL
row,Structure (SMILES),pest or weed control at 140 g/ha [%]
1,"COC(=O)c1nc(-c2ccc(C)cc2Cl)ccc1Cl [F60, Methyl 3-chloro-6-(2-chloro-4-methylphenyl) picolinate]",0 to 29
2,"CO/N=C/c1ccc(-c2ccc(Cl)c(C(=O)OC)n2)c(Cl)c1 [F21, methyl 3-chloro-6-(2-chloro-4-((methoxyimino)methyl)phenyl)picolinate]",0 to 29

# Same assay, conditions: post-emergence, 336 h, CIRAR: canada thistle (Cirsium arvense), 140 g ai/ha, 14 days after application, read-out: Visual Growth Reduction (%) 14 Days After Application, CIRAR
row,Structure (SMILES),pest or weed control at 140 g/ha [%]
1,"COC(=O)c1nc(-c2ccc(C)cc2Cl)ccc1Cl [F60, Methyl 3-chloro-6-(2-chloro-4-methylphenyl) picolinate]",0 to 29
2,"CO/N=C/c1ccc(-c2ccc(Cl)c(C(=O)OC)n2)c(Cl)c1 [F21, methyl 3-chloro-6-(2-chloro-4-((methoxyimino)methyl)phenyl)picolinate]",0 to 29

# Same assay, conditions: post-emergence, 336 h, CYPES: yellow nutsedge (Cyperus esculentus), 140 g ai/ha, 14 days after application, read-out: Visual Growth Reduction (%) 14 Days After Application, CYPES
row,Structure (SMILES),pest or weed control at 140 g/ha [%]
1,"COC(=O)c1nc(-c2ccc(C)cc2Cl)ccc1Cl [F60, Methyl 3-chloro-6-(2-chloro-4-methylphenyl) picolinate]",0 to 29
2,"CO/N=C/c1ccc(-c2ccc(Cl)c(C(=O)OC)n2)c(Cl)c1 [F21, methyl 3-chloro-6-(2-chloro-4-((methoxyimino)methyl)phenyl)picolinate]",0 to 29

# Same assay, conditions: post-emergence, 336 h, DIGSA: crabgrass (Digitaria sanguinalis), 140 g ai/ha, 14 days after application, read-out: Visual Growth Reduction (%) 14 Days After Application, DIGSA
row,Structure (SMILES),pest or weed control at 140 g/ha [%]
1,"COC(=O)c1nc(-c2ccc(C)cc2Cl)ccc1Cl [F60, Methyl 3-chloro-6-(2-chloro-4-methylphenyl) picolinate]",0 to 29
2,"CO/N=C/c1ccc(-c2ccc(Cl)c(C(=O)OC)n2)c(Cl)c1 [F21, methyl 3-chloro-6-(2-chloro-4-((methoxyimino)methyl)phenyl)picolinate]",0 to 29

# Same assay, conditions: post-emergence, 336 h, ECHCG: barnyardgrass (Echinochloa crus-galli), 140 g ai/ha, 14 days after application, read-out: Visual Growth Reduction (%) 14 Days After Application, ECHCG
row,Structure (SMILES),pest or weed control at 140 g/ha [%]
1,"COC(=O)c1nc(-c2ccc(C)cc2Cl)ccc1Cl [F60, Methyl 3-chloro-6-(2-chloro-4-methylphenyl) picolinate]",0 to 29

# Same assay, conditions: post-emergence, 336 h, IPOHE: ivy-leaf morning glory (Ipomoea hederacea), 140 g ai/ha, 14 days after application, read-out: Visual Growth Reduction (%) 14 Days After Application, IPOHE
row,Structure (SMILES),pest or weed control at 140 g/ha [%]
1,"COC(=O)c1nc(-c2ccc(C)cc2Cl)ccc1Cl [F60, Methyl 3-chloro-6-(2-chloro-4-methylphenyl) picolinate]",45 to 59

# Same assay, conditions: post-emergence, 336 h, KCHSC: kochia (Bassia scoparia), 140 g ai/ha, 14 days after application, read-out: Visual Growth Reduction (%) 14 Days After Application, KCHSC
row,Structure (SMILES),pest or weed control at 140 g/ha [%]
1,"COC(=O)c1nc(-c2ccc(C)cc2Cl)ccc1Cl [F60, Methyl 3-chloro-6-(2-chloro-4-methylphenyl) picolinate]",0 to 29

# Same assay, conditions: post-emergence, 336 h, SETFA: giant foxtail (Setaria faberi), 140 g ai/ha, 14 days after application, read-out: Visual Growth Reduction (%) 14 Days After Application, SETFA
row,Structure (SMILES),pest or weed control at 140 g/ha [%]
1,"COC(=O)c1nc(-c2ccc(C)cc2Cl)ccc1Cl [F60, Methyl 3-chloro-6-(2-chloro-4-methylphenyl) picolinate]",0 to 29

# Same assay, conditions: post-emergence, 336 h, SORVU: grain sorghum (Sorghum vulgare), 140 g ai/ha, 14 days after application, read-out: Visual Growth Reduction (%) 14 Days After Application, SORVU
row,Structure (SMILES),pest or weed control at 140 g/ha [%]
1,"COC(=O)c1nc(-c2ccc(C)cc2Cl)ccc1Cl [F60, Methyl 3-chloro-6-(2-chloro-4-methylphenyl) picolinate]",0 to 29

# Same assay, conditions: post-emergence, 336 h, STEME: common chickweed (Stellaria media), 140 g ai/ha, 14 days after application, read-out: Visual Growth Reduction (%) 14 Days After Application, STEME
row,Structure (SMILES),pest or weed control at 140 g/ha [%]
1,"COC(=O)c1nc(-c2ccc(C)cc2Cl)ccc1Cl [F60, Methyl 3-chloro-6-(2-chloro-4-methylphenyl) picolinate]",0 to 29

# Same assay, conditions: post-emergence, 336 h, barnyardgrass (Echinochloa crus-galli), 14 Days After Application, 140 g ai/ha, read-out: Visual Growth Reduction (%) ECHCG
row,Structure (SMILES),pest or weed control at 140 g/ha [%]
1,"CO/N=C/c1ccc(-c2ccc(Cl)c(C(=O)OC)n2)c(Cl)c1 [F21, methyl 3-chloro-6-(2-chloro-4-((methoxyimino)methyl)phenyl)picolinate]",0 to 29

# Same assay, conditions: post-emergence, 336 h, common chickweed (Stellaria media), 14 Days After Application, 140 g ai/ha, read-out: Visual Growth Reduction (%) STEME
row,Structure (SMILES),pest or weed control at 140 g/ha [%]
1,"CO/N=C/c1ccc(-c2ccc(Cl)c(C(=O)OC)n2)c(Cl)c1 [F21, methyl 3-chloro-6-(2-chloro-4-((methoxyimino)methyl)phenyl)picolinate]",0 to 29

# Same assay, conditions: post-emergence, 336 h, giant foxtail (Setaria faberi), 14 Days After Application, 140 g ai/ha, read-out: Visual Growth Reduction (%) SETFA
row,Structure (SMILES),pest or weed control at 140 g/ha [%]
1,"CO/N=C/c1ccc(-c2ccc(Cl)c(C(=O)OC)n2)c(Cl)c1 [F21, methyl 3-chloro-6-(2-chloro-4-((methoxyimino)methyl)phenyl)picolinate]",0 to 29

# Same assay, conditions: post-emergence, 336 h, ivy-leaf morning glory (Ipomoea hederacea), 14 Days After Application, 140 g ai/ha, read-out: Visual Growth Reduction (%) IPOHE
row,Structure (SMILES),pest or weed control at 140 g/ha [%]
1,"CO/N=C/c1ccc(-c2ccc(Cl)c(C(=O)OC)n2)c(Cl)c1 [F21, methyl 3-chloro-6-(2-chloro-4-((methoxyimino)methyl)phenyl)picolinate]",0 to 29

# Same assay, conditions: post-emergence, 336 h, johnsongrass (Sorghum vulgare), 14 Days After Application, 140 g ai/ha, read-out: Visual Growth Reduction (%) SORVU
row,Structure (SMILES),pest or weed control at 140 g/ha [%]
1,"CO/N=C/c1ccc(-c2ccc(Cl)c(C(=O)OC)n2)c(Cl)c1 [F21, methyl 3-chloro-6-(2-chloro-4-((methoxyimino)methyl)phenyl)picolinate]",0 to 29

# Same assay, conditions: post-emergence, 336 h, kochia (Bassia scoparia), 14 Days After Application, 140 g ai/ha, read-out: Visual Growth Reduction (%) KCHSC
row,Structure (SMILES),pest or weed control at 140 g/ha [%]
1,"CO/N=C/c1ccc(-c2ccc(Cl)c(C(=O)OC)n2)c(Cl)c1 [F21, methyl 3-chloro-6-(2-chloro-4-((methoxyimino)methyl)phenyl)picolinate]",0 to 29

# Same assay, conditions: post-emergence, 336 h, rice (Oryza sativa), 14 Days After Application, 140 g ai/ha, read-out: Visual Growth Reduction (%) ORYSA
row,Structure (SMILES),pest or weed control at 140 g/ha [%]
1,"CO/N=C/c1ccc(-c2ccc(Cl)c(C(=O)OC)n2)c(Cl)c1 [F21, methyl 3-chloro-6-(2-chloro-4-((methoxyimino)methyl)phenyl)picolinate]",0 to 29

# Same assay, conditions: post-emergence, 336 h, wheat, spring (Triticum aestivum), 14 Days After Application, 140 g ai/ha, read-out: Visual Growth Reduction (%) TRZAS
row,Structure (SMILES),pest or weed control at 140 g/ha [%]
1,"CO/N=C/c1ccc(-c2ccc(Cl)c(C(=O)OC)n2)c(Cl)c1 [F21, methyl 3-chloro-6-(2-chloro-4-((methoxyimino)methyl)phenyl)picolinate]",0 to 29
